The record followed here is patent US9772337B2, “Compositions and methods for functional gylcomics” (Emory University, priority 2010, dated 2017).

In the experiment the test system is anti-GD1a antibody. As to the kind of experiment: BBG GSL-AOAB shotgun microarray binding assay with anti-GD1a antibody. Particulars: fractions printed at 10 μM on NHS-slides.

For “Neu5Acα2-3Galβ1-3GalNAcβ1-4(Neu5Acα2-3)Galβ1-4Glcβ1-R [GD1a-AOAB]”, the “binding of anti-GD1a antibody to BBG GSL-AOAB fractions” value is reported as “primarily bound”.
